Assay results reported in US8586548B2, “NAP alpha-aminoisobutyric acid analog with neuroprotective activity” (Ramot at Tel-Aviv University, Ltd., priority 2009, dated 2013).
Like-named read-outs stand apart in the source and are kept apart here.

Tests used:
[1] = biological target: VQIVYK (SEQ ID NO:10) peptide derived from tau (Homo sapiens, UniProt P10636); experiment: In vitro tau-like VQIVYK aggregation assay (Thioflavin S); assay type: biochemical
Method: In the presence of polyglutamic acid (or heparin), VQIVYK (SEQ ID NO:10) aggregates which can be further detected by Thioflavin S (excitation 485 nm and emission 535) with emission intensity greatly increasing.
First, different concentrations of polyglutamic acid (0, 100 μM, 250 μM, and 400 μM) VQIVYK (SEQ ID NO:10) and either […] (NH4Ac) 50 mM pH 6.5 or MOPS 20 mM pH 6.5 and Thioflavin S 5 μM were mixed together and incubated at room temperature. The extent of aggregation was read at excitation 485 nm and emission 535 nm using the infinite 200 system with the Magellan program.
The peptides were added at a range of concentrations (10^−17-10^−9 M) and the extent of aggregation of 100 μM VQIVYK (SEQ ID NO:10) was tested in the presence of polyglutamate 250 μM in MOPS 20 μM, pH 6.5 for 7 days.
In order to avoid reading self peptide aggregation as VQIVYK aggregation, for each peptide concentration, the fluorescence of the peptide solution without VQIVYK was subtracted from the fluorescence of each peptide concentration containing VQIVYK.

[2] = test system: rat cerebral cortical neurons; settings: cited from earlier work
[3] = test system: beta amyloid peptide (1-42) toxicity; settings: cited from earlier work
[4] = test system: newborn apolipoprotein E deficient mice; settings: newborn apolipoprotein E deficient mice subjected to hypoxia; cited from earlier work
[5] = test system: fibroblast-like cells and neuronal-like cells; settings: cited from earlier work
[6] = intranasal administration to rats, dogs or humans; cited from earlier work
[7] = intranasal administration in the rat; cited from earlier work
[8] = test system: primary hippocampal neurons from presenilin 1 (PSI) mutant knock-in mice; settings: pretreatment; cited from earlier work
[9] = test system: beta amyloid peptide 25-35 neurotoxicity; settings: cited from earlier work

Molecule: Asn-Ala-Pro-Val-Ser-Ile-Pro-Gln [NAP]
- inhibition of tau aggregation at 10^−13M ([1]; 100 μM VQIVYK, polyglutamate 250 μM, MOPS pH 6.5, 7 days, FIG. 4, p<0.0005 vs. control): the effect of NAP seems to diminish
- prevention of tau aggregation (overall) ([1]; peptides at 10^−17-10^−9 M): effective for preventing tau aggregation
- protection against beta amyloid (25-35) ([2]; neuronal-enriched cultures): protected against beta amyloid (25-35)
- protection against beta amyloid (25-35) toxicity ([2]; neurons seeded on a bed of astrocytes): protect against beta amyloid (amino acids 25-35) toxicity
- protection against beta amyloid peptide (1-42) toxicity [3]: protection against the toxic beta amyloid peptide (1-42)
- neurodevelopment [4]: enhances neurodevelopment
- protection against oxidative stress ([5]; fibroblast-like cells): did not protect fibroblast-like cells
- protection against oxidative stress ([5]; neuronal-like cells): did protect neuronal-like cells
- plasma levels [6]: measurable plasma levels
- appearance in plasma [7]: rapid appearance in plasma

Molecule: SALLRSIPA (synthetic activity-dependent neuroprotective protein (ADNP) activity dependent neurotrophic factor 1 (ADNF-1) active core site, ADNF-9)
- protection of neurons with increased vulnerability to excitotoxicity [8]: protected by pretreatment with ADNF-9

B1: recombinant ADNP: recombinant activity-dependent neuroprotective protein (protein, UniProt Q9H2P0 1-1102, looked up)
Activity-dependent …: MFQLPVNNLGSLRKARKTVKKILSDIGLEYCKEHIEDFKQFEPNDFYLKNTTWEDVGLWDPSLTKNQDYRTKPFCCSACPFSSKFFSAYKSHFRNVHSEDFENRILLNCPYCTFNADKKTLETHIKIFHAPNASAPSSSLSTFKDKNKNDGLKPKQADSVEQAVYYCKKCTYRDPLYEIVRKHIYREHFQHVAAPYIAKAGEKSLNGAVPLGSNAREESSIHCKRCLFMPKSYEALVQHVIEDHERIGYQVTAMIGHTNVVVPRSKPLMLIAPKPQDKKSMGLPPRIGSLASGNVRSLPSQQMVNRLSIPKPNLNSTGVNMMSSVHLQQNNYGVKSVGQGYSVGQSMRLGLGGNAPVSIPQQSQSVKQLLPSGNGRSYGLGSEQRSQAPARYSLQSANASSLSSGQLKSPSLSQSQASRVLGQSSSKPAAAATGPPPGNTSSTQKWKICTICNELFPENVYSVHFEKEHKAEKVPAVANYIMKIHNFTSKCLYCNRYLPTDTLLNHMLIHGLSCPYCRSTFNDVEKMAAHMRMVHIDEEMGPKTDSTLSFDLTLQQGSHTNIHLLVTTYNLRDAPAESVAYHAQNNPPVPPKPQPKVQEKADIPVKSSPQAAVPYKKDVGKTLCPLCFSILKGPISDALAHHLRERHQVIQTVHPVEKKLTYKCIHCLGVYTSNMTASTITLHLVHCRGVGKTQNGQDKTNAPSRLNQSPSLAPVKRTYEQMEFPLLKKRKLDDDSDSPSFFEEKPEEPVVLALDPKGHEDDSYEARKSFLTKYFNKQPYPTRREIEKLAASLWLWKSDIASHFSNKRKKCVRDCEKYKPGVLLGFNMKELNKVKHEMDFDAEWLFENHDEKDSRVNASKTADKKLNLGKEDDSSSDSFENLEEESNESGSPFDPVFEVEPKISNDNPEEHVLKVIPEDASESEEKLDQKEDGSKYETIHLTEEPTKLMHNASDSEVDQDDVVEWKDGASPSESGPGSQQVSDFEDNTCEMKPGTWSDESSQSEDARSSKPAAKKKATMQGDREQLKWKNSSYGKVEGFWSKDQSQWKNASENDERLSNPQIEWQNSTIDSEDGEQFDNMTDGVAEPMHGSLAGVKLSSQQA
- neuroprotection in vitro against severe oxidative stress and beta amyloid peptide 25-35 [9]: neuroprotective in vitro
